Results on 7 molecules are retold here after patent US20210283253A1, “COMPOSITIONS AND METHODS AGAINST P. AERUGINOSA INFECTIONS” (priority 2017, published 2021).

Entries after “also recorded” stand apart in the source; their conditions may differ.

Test [1] relates to Pseudomonas aeruginosa. Kind of test: OPA with mAb/antibiotic combinations. The test is classed as cell-based. The settings on record: 90 minutes. The method, then:
The assay is performed in 96-well microtiter plates with 1% BSA in MEM as the assay diluent. The Leukemia-derived human cell-line HL-60 is used as source of neutrophils. Differentiation of HL-60 cells into neutrophils is induced by addition of 100 mM Dimethylformamide (DMF). Neutrophil morphology is verified by expression of CD11b/Mac-1 marker using FACS. Neutrophils are washed, re-suspended in assay diluent, counted and diluted to a density of 2.5×10^7 cells/ml. Opsonization is mediated by Rabbit sera complement, diluted in assay diluent for a final dilution factor of 1:60. Freshly grown log-phase Pseudomonas strains are re-suspended and diluted in assay diluent to achieve a final ratio of neutrophils to bacteria of 20:1 to 40:1. Dilutions of Aerucin™ from 5 μg/ml to 100 ng/ml are prepared in assay diluent along with a commercial human IgG1 at 5 μg/ml as negative control. Other negative controls include assay mixtures with certain components (complements, neutrophils, antibodies) absent.
Equal volumes (50 μl) of each component are added to assay wells in the order of: antibodies, complement, neutrophils then bacteria. The components are mixed using a multichannel pipette. Samples at time zero are taken, diluted and plated on agar plates for titer determination. Assay plates are then incubated at 37° C. with shaking for 90 minutes. Samples are again taken, diluted and plated on agar plates.
(§1) Bacteria titers (CFU/ml) are determined for time-zero and 90-minute samples from colony counts on agar plates after overnight incubation at 37° C. Percent kills are calculated as the difference in titer at 90 minutes from time-zero, divided by the titer at time-zero: […].
The assay is performed as described above except that equal volumes (50 μl) of each component are added to assay wells in the order of: antibodies, antibiotic, complement, neutrophils, and then bacteria. Bacteria titers (CFU/ml) are measured directly after mixing all components and after 90 minutes incubation. The read-out of the assay (% kill) is how well the drug or combination of drugs can kill bacteria over these 90 minutes.
Averages from three independent experiments are presented.
Minimum inhibitory concentrations (MICs) of the antibiotics used in the OPA assays had been determined upfront (data not shown). […] Data for bactericidal antibiotics Cefepime and Piperacillin was generated with 1×MIC, for Aztreonam (bactericidal) with ½ MIC.

For test [2], the system named is P. aeruginosa. The settings on record: cited from earlier work.
Test [3] concerns Pseudomonas aeruginosa. Kind of test: Opsonic phagocytosis assay (OPA) with Aerucin. The test is classed as cell-based.
Description: FIG. 3. […] The opsonic phagocytosis assay (OPA) measures potency of antibodies based on the ability to initiate and mediate destruction of their specific targets by neutrophils. The assay utilizes purified complement from goat, rabbit, guinea pig or human sera, and neutrophils either isolated from whole blood or from differentiation of parental cell lines. Various concentrations of the antibody of interest, along with controls, are mixed with antigens. Complement serum and neutrophils are then added at certain ratios. After incubation to allow phagocytosis to occur, fractions of remaining antigens are then quantified by plating (bacteria) on agar plates to enumerate bacterial colonies remaining from the titer that was used at the start of the assay reaction. […]
The assay is performed in 96-well microtiter plates with 1% BSA in MEM as the assay diluent. […] Neutrophils are washed, re-suspended in assay diluent, counted and diluted to a density of 2.5×10^7 cells/ml. […]
as §1

The mark [4] stands for this setting: 4 μg/ml antibiotic alone (Cefepime 1× MIC, Aztreonam ½ MIC).

As to `C[C@H]1[C@H](NC(=O)/C(=N\OC(C)(C)C(=O)O)c2csc(N)n2)C(=O)N1S(=O)(=O)O` [Aztreonam], the “% Kill” value in test [1] (setting [4]) is listed as 60%.
The same measure, in the same setting: as for `CO/N=C(\C(=O)N[C@@H]1C(=O)N2C(C(=O)[O-])=C(C[N+]3(C)CCCC3)CS[C@H]12)c1csc(N)n1` [Cefepime], the figure is 40%.
As for `O=C(O)c1cn(C2CC2)c2cc(N3CCNCC3)c(F)cc2c1=O` [Ciprofloxacin], the “% Kill” value in test [1] (0.5 μg/ml Ciprofloxacin alone (2× MIC)) was “does not show bacterial killing”.
Consider `CCN1CCN(C(=O)N[C@@H](C(=O)N[C@@H]2C(=O)N3[C@@H]2SC(C)(C)[C@@H]3C(=O)O)c2ccccc2)C(=O)C1=O` [Piperacillin], for which the “% Kill” value in test [1] (8 μg/ml Piperacillin alone (1× MIC)) is on record as about 40%.
With Colistin, in test [1] (2 μg/ml Colistin alone (2× MIC)), the “% Kill” value was about 20%.
Take “Panobacumab: anti-P. aeruginosa serotype 011 lipopolysaccharide monoclonal antibody”: the “activity on a meropenem resistant P. aeruginosa strain” value in test [2] (meropenem resistant strain) was “retained activity”. Further, in test [2] (neutropenic host), the “bacterial clearance from the lung” value is on record as “enhanced bacterial clearance” and the lung inflammation result is “significantly reduced lung inflammation”.

B1: Aerucin: anti-Pseudomonas aeruginosa MEP binding human monoclonal antibody; heavy chain variable SEQ ID NO: 5, light chain variable SEQ ID NO: 7 (antibody, listed as Homo sapiens, V domains shown)
VH: QLQLQESGPGLVKPTETLSLTCTVSGGPITYINYYWGWVRQPPGKGLEWIGSIHYDGSTFYNPSLKSRVTISGDTSKSEFSVKLSSVTAADTAVYYCARTYYDASGSPYFDHWGQGTLVTVSS
VL: QSVLTQPPSVSAAPGQKVSISCSGSSSNIGNNYVSWYQQLPGTAPNLLIYDNNKRPSGIPDRFSGSKSGTSATLDITGLQSGDEADYYCGTWDSSLSTWVFGGGTKLTVL
For the molecule B1, in test [3] (Aerucin 5 μg/ml to 100 ng/ml, rabbit complement, HL-60 neutrophils, 90 minutes), the “opsonic phagocytosis: killing over negative controls” value was “significant increase in killing over negative controls in a dose-dependent manner”. In addition, the “killing of P. aeruginosa in the absence of complement” value in test [3] (OPA without complement, a number of Pa strains (Pa 2410, Pa 27853, Pa PGO2338)) was “killing of P. aeruginosa bacteria in the absence of complement; also recorded: killing was observed in the absence of complement”. Moreover, the “% Kill” value in test [1] (50 ng/ml Aerucin alone) is reported as “around 5%”.
